This passage reports Ki results from patent US6500840B2, “Quinuclidine-substituted heteroaryl moieties for treatment of disease” (Pharmacia & Upjohn Company, priority 2000, dated 2002).

Structures can show the parent of a compound that is named as a salt.

α7 nAChR, sequence (Q05941 23-502): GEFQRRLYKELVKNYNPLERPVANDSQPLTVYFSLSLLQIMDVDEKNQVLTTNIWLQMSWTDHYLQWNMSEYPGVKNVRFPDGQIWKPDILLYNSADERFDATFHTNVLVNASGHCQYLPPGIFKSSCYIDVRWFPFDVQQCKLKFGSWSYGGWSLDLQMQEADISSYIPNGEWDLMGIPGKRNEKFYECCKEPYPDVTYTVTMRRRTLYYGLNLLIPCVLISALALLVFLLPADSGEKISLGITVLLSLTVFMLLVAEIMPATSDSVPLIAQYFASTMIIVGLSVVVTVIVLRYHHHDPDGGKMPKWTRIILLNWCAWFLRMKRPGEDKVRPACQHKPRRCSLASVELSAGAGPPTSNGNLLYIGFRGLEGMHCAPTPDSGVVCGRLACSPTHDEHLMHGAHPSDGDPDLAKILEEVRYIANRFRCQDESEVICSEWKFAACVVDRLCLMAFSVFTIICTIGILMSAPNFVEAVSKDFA

One assay addresses α7 nAChR (Rattus norvegicus, UniProt Q05941). The assay can be described thus: [3H]-MLA competition binding assay, rat brain membranes.
Settings: not given
Take `O=C(N[C@H]1CN2CCC1CC2)c1ccc(Sc2ccc(F)c(Cl)c2)s1` [Example 36, N-[(3R)-1-azabicyclo[2.2.2]oct-3-yl]-5-(3-chloro-4-fluorophenylsulfanyl)-thiophene-2-carboxamide]: the Ki – broadly, the equilibrium dissociation constant of an inhibitor or competing ligand from its target – fell in the range of 110 to 115 nM.

The assay is the same for the next values; noted with them: Ki, inhibition of [3H]-MLA binding (3.0 to 4.0 nM), Sprague-Dawley rat whole brain minus cerebellum homogenate, 1 hour at 25° C.
For `CC1C(NC(=O)c2ccc(Br)s2)C2CCN1CC2` (mixture of isomers) [Example 158, 5-Bromo-N-(2-methyl-1-azabicyclo[2.2.2]oct-3-yl)thiophene-2-carboxamide 4-Methylbenzenesulfonate], the Ki was in the range of 12 to 20 nM.

Turning to `O=C(N[C@H]1CN2CCC1CC2)c1ccc(-c2ccccc2)s1` [Example 1, N-[(3R)-1-Azabicyclo[2.2.2]oct-3-yl]-5-phenyl-thiophene-2-carboxamide Hydrochloride], the Ki was in the range of 13 to 33 nM.

`O=C(N[C@H]1CN2CCC1CC2)c1ccc(-c2ccc(Cl)cc2)s1` [Example 2, N-[(3R)-1-azabicyclo[2.2.2]oct-3-yl]-5-(4-clorophenyl)-thiophene-2-carboxamide hydrochloride] gave a Ki of 110 nM.

Consider `O=C(N[C@H]1CN2CCC1CC2)c1ccc(-c2cccc(Cl)c2)s1` [Example 3, N-[(3R)-1-azabicyclo[2.2.2]oct-3-yl]-5-(3-chlorophenyl)-thiophene-2-carboxamide hydrochloride], for which the Ki is 95 to 157 nM.

Molecule `O=C(N[C@H]1CN2CCC1CC2)c1ccc(-c2ccccc2Cl)s1` [Example 4, N-[(3R)-1-azabicyclo[2.2.2]oct-3-yl]-5-(2-chlorophenyl)-thiophene-2-carboxamide hydrochloride] displayed a Ki of 60 to 73 nM.

For the molecule `O=C(N[C@H]1CN2CCC1CC2)c1ccc(-c2ccsc2)s1` [Example 5, N-[(3R)-1-azabicyclo[2.2.2]oct-3-yl]-2,3′-bithiophene-5-carboxamide hydrochloride], the inhibition constant Ki lay within 9 to 15 nM.

Molecule `O=C(N[C@H]1CN2CCC1CC2)c1ccc(-c2ccccc2[N+](=O)[O-])s1` [Example 6, N-[(3R) 1-azabicyclo[2.2.2]oct-3-yl]-5-(2-nitrophenyl)-thiophene-2-carboxamide hydrochloride] yielded a Ki of 5 to 10 nM.

Consider `O=C(N[C@H]1CN2CCC1CC2)c1ccc(-c2cccc([N+](=O)[O-])c2)s1` [Example 7, N-[(3R)-1-azabicyclo[2.2.2]oct-3-yl]-5-(3-nitrophenyl)-thiophene-2-carboxamide], for which the Ki was 25 to 30 nM.

In turn, `O=C(N[C@H]1CN2CCC1CC2)c1cc(-c2ccccc2)cs1` [Example 8, N-[(3R)-1-azabicyclo[2.2.2]oct-3-yl]4-phenyl-thiophene-2-carboxamide hydrochloride] yielded a Ki of 46 nM.

`O=C(N[C@H]1CN2CCC1CC2)c1ccc(-c2cccc(OCc3ccccc3)c2)s1` [Example 9, N-[(3R)-1-azabicyclo[2.2.2]oct-3-yl]-5-(3-benzyloxyphenyl)-thiophene-2-carboxamide hydrochloride] returned a Ki of 540 to 570 nM.

The molecule `Nc1ccccc1-c1ccc(C(=O)N[C@H]2CN3CCC2CC3)s1` [Example 12, 5-(2-Aminophenyl)-N-[(3R)-1-azabicyclo[2.2.2]oct-3-yl]-thiophene-2-carboxamide] came in with a Ki of 45 to 75 nM.

On to `Cc1ccc(-c2ccc(C(=O)N[C@H]3CN4CCC3CC4)s2)s1` [Example 14, N-[(3R)-1-Azabicyclo[2.2.2]oct-3-yl]-5′-methyl-2,2′-bithiophene-5-carboxamide Hydrochloride], for which the Ki was in the range of 12 to 16 nM.

On to `O=C(N[C@H]1CN2CCC1CC2)c1ccc(-c2ccc(Cl)s2)s1` [Example 15, N-[(3R)-1-Azabicyclo[2.2.2]oct-3-yl]-5′-chloro-2,2′-bithiophene-5-carboxamide Hydrochloride], for which the Ki lay in the range of 40 to 90 nM.

In turn, `O=C(N[C@H]1CN2CCC1CC2)c1ccc([N+](=O)[O-])s1` [Example 16, N-[(3R)-1-Azabicyclo[2.2.2]oct-3-yl]-5-nitro-thiophene-2-carboxamide Hydrochloride] had a Ki of 3 to 8 nM.

The molecule `NCc1ccc(C(=O)N[C@H]2CN3CCC2CC3)s1` [Example 17, 5-(Aminomethyl)-N-[(3R)-1-azabicyclo[2.2.2]oct-3-yl]-thiophene-2-carboxamide Dihydrochloride] showed a Ki of 260 to 385 nM.

In turn, `N#Cc1ccc(C(=O)N[C@H]2CN3CCC2CC3)s1` [Example 18, N-[(3R)-1-Azabicyclo[2.2.2]oct-3-yl]-5-cyano-thiophene-2-carboxamide Hydrochloride] came in with a Ki of 240 to 290 nM.

As to `COc1ccc(C(=O)N[C@H]2CN3CCC2CC3)s1` [Example 19, N-[(3R)-1-Azabicyclo[2.2.2]oct-3-yl]-5-methoxy-thiophene-2-carboxamide Hydrochloride], the Ki is 24 nM.

`O=C(N[C@H]1CN2CCC1CC2)c1ccc(-c2ccccn2)s1` [Example 20, N-[(3R)-1-Azabicyclo[2.2.2]oct-3-yl]-5-(pyridin-2-yl)-thiophene-2-carboxamide]: the Ki fell in the range of 3 to 5 nM.

As for `O=C(N[C@H]1CN2CCC1CC2)c1ccc(-c2cccs2)s1` [Example 21], the Ki fell in the range of 1 to 2 nM.

`CSc1ccc(C(=O)N[C@H]2CN3CCC2CC3)s1` [Example 22, N-[(3R)-1-Azabicyclo[2.2.2]oct-3-yl]-5-(methylsulfanyl)-thiophene-2-carboxamide] gave a Ki of 1 to 6 nM.

In turn, `O=C(N[C@H]1CN2CCC1CC2)c1ccc(Cl)s1` [Example 23, N-[(3R)-1-azabicyclo[2.2.2]oct-3-yl]-5-chloro-thiophene-2-carboxamide] returned an inhibition constant (Ki) of 6 to 10 nM.

Molecule `Cc1ccc(C(=O)N[C@H]2CN3CCC2CC3)s1` [Example 25, N-[(3R)-1-azabicyclo[2.2.2]oct-3-yl]-5-methyl-thiophene-2-carboxamide] returned a Ki of 10 to 15 nM.

Consider `O=C(N[C@H]1CN2CCC1CC2)c1ccc(Br)s1` [Example 26, N-[(3R)-1-azabicyclo[2.2.2]oct-3-yl]-5-bromo-thiophene-2-carboxamide], for which the Ki was 5 to 20 nM.

In turn, `O=C(N[C@H]1CN2CCC1CC2)c1ccc(Sc2ccccc2)s1` [Example 27, N-[(3R)-1-azabicyclo[2.2.2]oct-3-yl]-5-(phenylsulfanyl)-thiophene-2-carboxamide] returned an inhibitory constant (Ki) of 35 to 160 nM.

`O=C(N[C@H]1CN2CCC1CC2)c1ccc(Sc2ccc(Cl)cc2)s1` [Example 33, N-[(3R)-1-Azabicyclo[2.2.2]oct-3-yl]-5-(4-chlorophenylsulfanyl)-thiophene-2-carboxamide] displayed an inhibition constant Ki of 27 nM.

Regarding `O=C(N[C@H]1CN2CCC1CC2)c1ccc(Sc2ccc(F)cc2F)s1` [Example 34, N-[(3R)-1-azabicyclo[2.2.2]oct-3-yl]-5-(2,4-difluorophenyl-sulfanyl)-thiophene-2-carboxamide hydrochloride], the Ki fell in the range of 30 to 39 nM.

For the molecule `O=C(N[C@H]1CN2CCC1CC2)c1ccc(Sc2cccc(Cl)c2)s1` [Example 35, N-[(3R)-1-azabicyclo[2.2.2]oct-3-yl]-5-(3-chlorophenyl-sulfanyl)-thiophene-2-carboxamide], the Ki was 30 to 50 nM.

Take `O=C(N[C@H]1CN2CCC1CC2)c1ccc(Oc2ccccc2)s1` [Example 40, N-[(3R)-1-Azabicyclo[2.2.2]oct-3-yl]-5-phenoxy-thiophene-2-carboxamide Hydrochloride]: the Ki lay in the range of 12 to 16 nM.

In the case of `O=C(N[C@H]1CN2CCC1CC2)c1ccc(-c2ccccc2O)s1` [Example 41, N-[(3R)-1-Azabicyclo[2.2.2]oct-3-yl]-5-(2-hydroxyphenyl)-thiophene-2-carboxamide Hydrochloride], the affinity, expressed as Ki, was 34 nM.
